Experiments:
[1] = tested on: mice challenged with multiple high doses of STZ; assay: Mortality in severe insulin-dependent diabetes, multiple high doses of STZ (Example C); format: in vivo, balb/C mice; details: STZ 75 mg/kg i.p. x 5 days, oral 30 mg/kg/day, after three weeks of daily treatment, 20 mice/group
Procedure: Female balb/C mice (19 wks of age at start of experiment) were challenged with multiple high doses of STZ (75 mg/kg i.p. on 5 consecutive days). Animals were then divided in two groups (20 mice/group) matched for severity of diabetes. Four days after the last dose of STZ, treatments were initiated. One group received Vehicle (0.4 ml of 0.75% HPMC, p.o.), and the other group received oral COMPOUND AA (30 mg/kg/day). After three weeks of daily treatment, cumulative mortality in the Vehicle Control group was 19/20 mice. In contrast, only 5/20 of the COMPOUND AA mice died during this time.

[2] = tested on: streptozotocin diabetic mice; assay: Streptozotocin diabetic mice treated with oral Compound AH for 14 weeks (Example A); format: in vivo, Balb/C mice; details: STZ diabetic mice, 250 mg/kg daily oral, after several weeks of treatment
Procedure: Streptozotocin (STZ) is a toxin that selectively destroys insulin-producing pancreatic beta cells, and is widely used to induce insulin-dependent diabetes in experimental animals.
Female Balb/C mice (8 weeks old; 18-20 grams body weight) were treated with streptozotocin (STZ) (50 mg/kg i.p. on each of five consecutive days). Fourteen days after the last dose of STZ, blood glucose was measured to verify that the animals were diabetic, and the mice were divided into two groups of 5 animals each, one group receiving Compound AH (250 mg/kg) daily by oral gavage, and the other receiving vehicle (0.75% hydroxypropylmethylcellulose, a suspending agent, in water). […] Blood samples were taken periodically for determination of blood glucose concentrations, and body weights were also recorded.

[3] = tested on: mice with severe insulin-dependent diabetes induced by streptozotocin; assay: Survival of mice with lethal insulin-dependent diabetes, single dose of streptozotocin (Example B); format: in vivo, Balb/C mice
Procedure: Female Balb/C mice (14 weeks old) were treated with a single dose of streptozotocin (175 mg/kg i.p.) to induce severe insulin-dependent diabetes. Seven days later, mice were divided into three treatment groups: Compound AH, pioglitazone, and vehicle. Mice were treated daily via oral gavage, and survival was monitored over time.

ob/ob mice [4] = assay: Acute hypoglycemic effect in ob/ob obese diabetic mice, Expt 2 (Example G); format: in vivo; details: Mus musculus, single oral dose 250 mg/kg, 6 hours, read-out: % Reduction vs Control
Procedure: Male ob/ob mice (50-55 grams; blood glucose ˜300 mg/dL) were divided into groups of five animals each, and given a single oral dose of test drug (250 mg/kg) suspended in 0.5% carboxymethylcellulose vehicle; a control group received oral vehicle alone. Six hours after oral administration of test drugs or vehicle (control), blood samples were obtained from a tail vein and glucose content was determined with a glucometer.

ob/ob mice [5] = tested on: ob/ob mice
Description: Male lean (ob/+ heterozygote) and obese (ob/ob homozygote) C57BL/6 mice approximately 8 weeks of age were obtained from Jackson Labs (Bar Harbor, Me.) and randomly assigned into groups of 5 animals such that body weights and blood glucose concentrations were similar between groups. […] Blood glucose was routinely determined with glucose test strips and a Glucometer Elite XL device (Bayer Corporation). At selected time points, blood samples (˜100 microliters) were obtained with a heparinized capillary tube via the retro-orbital sinus for serum chemistry analysis.
The dose ranges of compounds in this experiment were chosen to include both suboptimal and potentially supraoptimal doses.

[6] = tested on: high fat-fed C57B1/6J mice; assay: Circulating triglycerides, free fatty acids, insulin and leptin in high fat-fed C57B1/6J mice (Example L); format: in vivo; details: oral gavage, after 4 weeks of drug treatment
Description: The high fat-fed mouse is a model for the hypertriglyceridemia and high circulating fatty acid levels, and the insulin and leptin resistance that are found in people at risk for and with obesity, diabetes, cardiovascular disease and other disorders. Male C57B1/6J mice, approximately 8 weeks of age, were randomly assigned into groups of 6 animals. […] Mice were fed a high-fat diet (diet number D12451, containing 45% of calories as fat (Research Diets, New Brunswick, N.J.)) for 6 weeks. […]

[7] = tested on: high fat-fed Sprague Dawley rats; assay: Circulating glucose, insulin, triglycerides and free fatty acids in high fat-fed Sprague Dawley rats (Example M); format: in vivo; details: at all doses (10, 30 and 100 mg/kg)
Procedure: All animals were maintained in a temperature-controlled (25° C.) facility with a strict 12 h light/dark cycle and were given free access to water and food. Rats were fed a high-fat diet (diet number D12451 (containing 45% of calories as fat), Research Diets, New Brunswick, N.J.) for one month prior to drug treatment.
At the indicated time points, blood samples (˜100 μl) were obtained via the tail vein for serum chemistry analysis.

O=C(O)CCC(=O)c1ccc(OCc2ccccc2F)cc1 [Compound AA, 4-(4-(2-Fluorobenzyloxy)phenyl)-4-oxobutyric acid]
cumulative mortality (mice died) [1]: 5/20

O=C(O)CCC(=O)c1ccc(OCc2c(F)cccc2F)cc1 [Compound AH, 4-(4-(2,6-Difluorobenzyloxy)phenyl)-4-oxobutyric acid]
blood glucose concentrations [2]: began to decrease toward baseline | Survivors (Survival at 12 weeks) ([3]; STZ 175 mg/kg i.p. mice, daily oral gavage 250 mg/kg/day): Four of the five | body weights of survivors ([3]; at 12 weeks, 250 mg/kg/day oral): recovered and were maintained in the normal range

O=C(O)CCC(=O)c1cccc(OCc2c(F)cccc2F)c1 [Compound AW, 4-(3-(2,6-Difluorobenzyloxy)phenyl)-4-oxobutyric acid]
change in vivo at 250 mg/kg (ob/ob mice [4]): -53.1 ± 3.1% | serum triglycerides and fatty acids (ob/ob mice [5]; 100 to 300 mg/kg/day, versus comparators at their optimum antihyperglycemic doses): reduced serum triglycerides and fatty acids better than did either rosiglitazone or pioglitazone | reduction in blood glucose (ob/ob mice [5]; daily oral, over the dose range): comparable to that achieved with pioglitazone and rosiglitazone | serum liver enzymes (ALT, AST, SDH) (ob/ob mice [5]; doses ranging from 30 mg/kg/day to 300 mg/kg/day): dose-dependent decrease | weight gain relative to vehicle-treated mice (ob/ob mice [5]; four week treatment period, over the dose range): dose-dependent attenuation of weight gain

Cc1cccc(C)c1COc1cccc(C(=O)CCC(=O)O)c1 [Compound BI, 4-(3-(2,6-Dimethylbenzyloxy)phenyl)-4-oxobutyric acid]
insulin serum levels (FIG. 1) [6]: effective at lowering | leptin serum levels (FIG. 2) [6]: effective at lowering | free fatty acids [7]: reduced

Cc1cccc(C)c1COc1cccc(C(=O)CCC(=O)[O-])c1.[Na+] [Compound BL, 4-(3-(2,6-Dimethylbenzyloxy)phenyl)-4-oxobutyric acid Sodium salt]
insulin serum levels (FIG. 1) [6]: effective at lowering | leptin serum levels (FIG. 2) [6]: effective at lowering
